Results: patent US8138168B1 (Takeda Pharmaceutical Company Limited, priority 2007, dated 2012)

biological target: T1, Recombinant human renin (Homo sapiens, UniProt P00797); experiment: In vitro enzymatic activity assay of renin inhibitors (fluorogenic peptide substrate); assay type: biochemical; details: not given
T1 construct: isolate the active form (residues 67-406); made in house; host or cells: FreeStyle 293-F cells (transient expression of pcDNA3.1(+)/hREN)
T1 sequence (P00797 67-406): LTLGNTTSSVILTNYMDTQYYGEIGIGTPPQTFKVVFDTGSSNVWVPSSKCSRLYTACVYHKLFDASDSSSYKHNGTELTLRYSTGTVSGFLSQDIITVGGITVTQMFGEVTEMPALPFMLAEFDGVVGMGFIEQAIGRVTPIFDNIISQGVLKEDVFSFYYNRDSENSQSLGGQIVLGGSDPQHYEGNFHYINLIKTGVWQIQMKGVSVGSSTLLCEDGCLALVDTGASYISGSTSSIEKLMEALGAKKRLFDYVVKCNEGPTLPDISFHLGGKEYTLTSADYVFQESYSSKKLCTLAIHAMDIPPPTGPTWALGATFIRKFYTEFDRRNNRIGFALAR
Outline: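 Enzyme: recombinant human renin, 3 nM final, 10 min compound pre-incubation at 37 °C; buffer 50 mM Hepes pH 7.4 with 0.1 mg/mL BSA or extra 2% BSA; 5% DMSO.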

Row | Structure (SMILES) | IC50
1 | COCCCn1c([C@@H]2CCCN(C(=O)[C@@H]3CN(C(=O)Oc4ccccc4Cl)C[C@H]3N)C2)nc2ccccc21 [Compound 390, (3S,4R)-2-chlorophenyl 3-amino-4-((R)-3-(1-(3-methoxypropyl)-1H-benzo[d]imidazol-2-yl)piperidine-1-carbonyl)pyrrolidine-1-carboxylate] | > 1000 nM

same assay, conditions: read-out: IC50 of Exemplified Compounds Against Renin

Row | Structure (SMILES) | IC50
2 | COCCCn1c([C@@H]2CCCN(C(=O)[C@@H]3CN(C(=O)c4ccc5ccccc5c4)C[C@H]3N)C2)nc2ccccc21 [Compound 362, ((3R,4S)-1-(2-naphthoyl)-4-aminopyrrolidin-3-yl)((R)-3-(1-(3-methoxypropyl)-1H-benzo[d]imidazol-2-yl)piperidin-1-yl)methanone] | 100 to 1000 nM
3 | COCCCn1c([C@@H]2CCCN(C(=O)C[C@H](N)CNC(=O)c3cccc(OC)c3)C2)nc2ccccc21 [Compound 310, N-((S)-2-amino-4-((R)-3-(1-(3-methoxypropyl)-1H-benzo[d]imidazol-2-yl)piperidin-1-yl)-4-oxobutyl)-3-methoxybenzamide] | 100 to 1000 nM
4 | COCCCn1c([C@@H]2CCCN(C(=O)[C@@H]3CN(S(=O)(=O)c4cc(C)c(Cl)cc4C)C[C@H]3N)C2)nc2ccccc21 [Compound 344, ((3R,4S)-4-amino-1-(4-chloro-2,5-dimethylphenylsulfonyl)pyrrolidin-3-yl)((R)-3-(1-(3-methoxypropyl)-1H-benzo[d]imidazol-2-yl)piperidin-1-yl)methanone] | 100 to 1000 nM
5 | COCCCn1c([C@@H]2CCCN(C(=O)[C@@H]3CN(C(=O)c4ccc(Cl)cc4)C[C@H]3N)C2)nc2ccccc21 [Compound 416, ((3R,4S)-4-amino-1-(4-chlorobenzoyl)pyrrolidin-3-yl)((R)-3-(1-(3-methoxypropyl)-1H-benzo[d]imidazol-2-yl)piperidin-1-yl)methanone] | > 1000 nM

Continued, values first:

Row | IC50 | Structure (SMILES)
6 | 100 to 1000 nM | NC(=O)CCn1c([C@@H]2CCCN(C(=O)C[C@H](N)Cc3ccc(-c4ccc(N)nc4)cc3)C2)nc2ccccc21 [Compound 480, 3-(2-((R)-1-((R)-3-amino-4-(4-(6-aminopyridin-3-yl)phenyl)butanoyl)piperidin-3-yl)-1H-benzo[d]imidazol-1-yl)propanamide]
7 | 100 to 1000 nM | COCCCn1c([C@@H]2CCCN(C(=O)[C@@H]3CN(C(=O)c4cccc(Cl)c4)C[C@H]3N)C2)nc2ccccc21 [Compound 375, ((3R,4S)-4-amino-1-(3-chlorobenzoyl)pyrrolidin-3-yl)((R)-3-(1-(3-methoxypropyl)-1H-benzo[d]imidazol-2-yl)piperidin-1-yl)methanone]
8 | < 100 nM | COCCCn1c([C@@H]2CCCN(C(=O)C[C@H](N)Cc3ccc(-c4ccc(S(C)(=O)=O)cc4)cc3)C2)nc2ccccc21 [Compound 165, (R)-3-amino-1((R)-3-(1-(3-methoxypropyl)-1H-benzo[d]imidazol-2-yl)piperidin-1-yl)-4-(4′-(methylsulfonyl)biphenyl-4-yl)butan-1-one]
9 | < 100 nM | COCCCn1c([C@@H]2CCCN(C(=O)C[C@H](N)Cc3ccc(-c4ccccc4OC)cc3)C2)nc2ccccc21 [Compound 159]
10 | < 100 nM | COCCCn1c([C@@H]2CCCN(C(=O)C[C@H](N)Cc3ccc(-c4c(C)n[nH]c4C)cc3)C2)nc2ccccc21 [Compound 137, (R)-3-amino-4-(4-(3,5-dimethyl-1H-pyrazol-4-yl)phenyl)-1-((R)-3-(1-(3-methoxypropyl)-1H-benzo[d]imidazol-2-yl)piperidin-1-yl)butan-1-one]
11 | < 100 nM | COCCCn1c([C@@H]2CCCN(C(=O)C[C@H](N)Cc3ccc(-c4ccc(-n5c(C)n[nH]c5=O)cc4)cc3)C2)nc2ccccc21 [Compound 206, 4-(4′-((R)-2-amino-4-((R)-3-(1-(3-methoxypropyl)-1H-benzo[d]imidazol-2-yl)piperidin-1-yl)-4-oxobutyl)biphenyl-4-yl)-3-methyl-1H-1,2,4-triazol-5(4H)-one]
